Each structure is given as a SMILES string. Several values for one entry are separate records, joined by “and”; a condition that tells them apart may be missing. Equal values may be shown once. Inconclusive results and toxic doses are left out.

This passage reports T/C results from PubChem BioAssay AID334 (DTP/NCI, 2004).

The test system of the assay is CD2F1 mice, intracerebral P388 leukemia, median survival T/C%. Nature of the assay: NCI In Vivo Anticancer Drug Screen. Data for tumor model P388 Leukemia (intracerebral) in CD2F1 (CDF1) mice. The conditions noted are these: endpoint: median survival time, higher = longer survival. Here is the method:
The antitumor activity of compounds was measured in mice bearing transplantable tumors. Survival or tumor size were measured and the results are expressed as the measurement made in the treated group (T) divided by the measurement made in the vehicle treated control group (C). The tumor model used in this assay is P388 Leukemia (intracerebral) in CD2F1 (CDF1) mice

[1] abbreviates: dose: 32.0 mg/kg/injection, schedule: Q01DX005 (ip), vehicle: saline.
Where [2] appears, read: dose: 128.0 mg/kg/injection, schedule: Q01DX005 (ip), vehicle: saline.
[3] abbreviates: dose: 10.0 mg/kg/injection, schedule: Q01DX005 (ip), vehicle: Klucel (hydroxypropylcellulose) (HPC).
The mark [4] stands for this setting: dose: 20.0 mg/kg/injection, schedule: Q01DX005 (ip), vehicle: Klucel (hydroxypropylcellulose) (HPC).

For `O=C1NC2(CCCCC2)C(=O)N1CCN(CCCl)CCCl`, the T/C reads like this: (dose: 1.25 mg/kg/injection, schedule: Q01DX005 (iv), vehicle: clinical formulation) 112 % of control; (dose: 1.25 mg/kg/injection, schedule: Q01DX009 (ip), vehicle: clinical formulation) 103 % of control; (dose: 1.25 mg/kg/injection, schedule: Q01DX009 (ip), vehicle: saline with Tween-80) 98 % of control; (dose: 1.5 mg/kg/injection, schedule: Q01DX009 (ip), vehicle: saline) 107 % of control; (dose: 2.5 mg/kg/injection, schedule: Q01DX005 (iv), vehicle: clinical formulation) 106 % of control; (dose: 2.5 mg/kg/injection, schedule: Q01DX009 (ip), vehicle: clinical formulation) 101 % of control. Further, the T/C reads like this: (dose: 2.5 mg/kg/injection, schedule: Q01DX009 (ip), vehicle: saline with Tween-80) 110 % of control; (dose: 5.0 mg/kg/injection, schedule: Q01DX005 (iv), vehicle: clinical formulation) 160 % of control; (dose: 5.0 mg/kg/injection, schedule: Q01DX009 (ip), vehicle: clinical formulation) 103 % of control; (dose: 5.0 mg/kg/injection, schedule: Q01DX009 (ip), vehicle: saline with Tween-80) 112 % of control; (dose: 6.0 mg/kg/injection, schedule: Q01DX009 (ip), vehicle: saline) 117 % of control; (dose: 10.0 mg/kg/injection, schedule: Q01DX009 (ip), vehicle: saline with Tween-80) 124 % of control. The T/C (dose: 20.0 mg/kg/injection, schedule: Q01DX009 (ip), vehicle: saline with Tween-80) was 103 % of control.

Regarding `O=NN(CCCl)C(=O)NCCCl`, the T/C was 160 % of control (dose: 8.0 mg/kg/injection, schedule: Q01DX005 (iv), vehicle: saline + alcohol); 202 % of control (dose: 30.0 mg/kg/injection, schedule: Q01DX001 (ip), vehicle: saline + alcohol); 202 % of control (dose: 40.0 mg/kg/injection, schedule: Q01DX001 (ip), vehicle: saline + alcohol).

As to `COS(C)(=O)=O`, the T/C under setting [1] is 107 % of control and 108 % of control; the T/C (dose: 64.0 mg/kg/injection, schedule: Q01DX005 (ip), vehicle: saline) was 97 % of control and 106 % of control; the T/C under setting [2] is 104 % of control and 105 % of control.

For `N=C(N)SCc1c2ccccc2c(CSC(=N)N)c2ccccc12`, the T/C runs as follows: (dose: 2.5 mg/kg/injection, schedule: Q01DX005 (ip), vehicle: Klucel (hydroxypropylcellulose) (HPC)) 93 % of control and 96 % of control; (dose: 5.0 mg/kg/injection, schedule: Q01DX005 (ip), vehicle: Klucel (hydroxypropylcellulose) (HPC)) 97 % of control and 104 % of control; under setting [3], 97 % of control and 101 % of control; under setting [4], 96 % of control and 104 % of control.

As to `CC1(C)N=C(N)N=C(N)N1c1ccc(CCCCc2cccc(S(=O)(=O)F)c2)c(Cl)c1`, the T/C by setting is: (dose: 8.0 mg/kg/injection, schedule: Q01DX009 (ip), vehicle: saline) 94 % of control; (dose: 12.0 mg/kg/injection, schedule: Q01DX009 (ip), vehicle: saline) 116 % of control; (dose: 18.0 mg/kg/injection, schedule: Q01DX009 (ip), vehicle: saline) 105 % of control; (dose: 27.0 mg/kg/injection, schedule: Q01DX009 (ip), vehicle: saline) 88 % of control.

Turning to `CC[C@]1(O)C[C@H]2CN(CCc3c([nH]c4ccccc34)[C@@](C(=O)OC)(c3cc4c(cc3OC)N(C=O)[C@H]3[C@@](O)(C(=O)OC)[C@H](OC(C)=O)[C@]5(CC)C=CCN6CC[C@]43[C@@H]65)C2)C1`, the T/C is 111 % of control (dose: 0.2 mg/kg/injection, schedule: Q04DX003 (ip), vehicle: water); 106 % of control (dose: 0.4 mg/kg/injection, schedule: Q04DX003 (ip), vehicle: water); 116 % of control (dose: 0.8 mg/kg/injection, schedule: Q04DX003 (ip), vehicle: water); 109 % of control (dose: 1.6 mg/kg/injection, schedule: Q04DX003 (ip), vehicle: water); 106 % of control (dose: 3.2 mg/kg/injection, schedule: Q04DX003 (ip), vehicle: water).

Consider `CC[n+]1c(-c2ccccc2)c2cc(N)ccc2c2ccc(N)cc21`, for which the T/C is 102 % of control (dose: 6.0 mg/kg/injection, schedule: Q01DX005 (ip), vehicle: saline); 99 % of control and 106 % of control (dose: 12.0 mg/kg/injection, schedule: Q01DX005 (ip), vehicle: saline).

On to `Nc1nncs1`, for which the T/C (dose: 64.0 mg/kg/injection, schedule: Q01DX005 (ip), vehicle: saline with Tween-80) was 119 % of control; the T/C (dose: 128.0 mg/kg/injection, schedule: Q01DX005 (ip), vehicle: saline with Tween-80) is 160 % of control and 169 % of control; the T/C (dose: 256.0 mg/kg/injection, schedule: Q01DX005 (ip), vehicle: saline with Tween-80) was 180 % of control.

In the case of `CN(C)c1nc(N(C)C)nc(N(C)C)n1`, the T/C reads like this: (dose: 100.0 mg/kg/injection, schedule: Q01DX005 (ip), vehicle: saline with Tween-80) 104 % of control; (dose: 100.0 mg/kg/injection, schedule: Q01DX005 (ip), vehicle: suspension in saline) 100 % of control; (dose: 200.0 mg/kg/injection, schedule: Q01DX005 (ip), vehicle: saline with Tween-80) 111 % of control; (dose: 200.0 mg/kg/injection, schedule: Q01DX005 (ip), vehicle: suspension in saline) 107 % of control; (dose: 400.0 mg/kg/injection, schedule: Q01DX005 (ip), vehicle: saline with Tween-80) 111 % of control; (dose: 400.0 mg/kg/injection, schedule: Q01DX005 (ip), vehicle: suspension in saline) 89 % of control.

Regarding `O=C1C(=O)c2ccccc2C(O)=C1CC=C(Cl)Cl`, the T/C runs as follows: under setting [3], 102 % of control and 109 % of control; under setting [4], 96 % of control and 98 % of control; (dose: 40.0 mg/kg/injection, schedule: Q01DX005 (ip), vehicle: Klucel (hydroxypropylcellulose) (HPC)) 104 % of control and 105 % of control; (dose: 80.0 mg/kg/injection, schedule: Q01DX005 (ip), vehicle: Klucel (hydroxypropylcellulose) (HPC)) 100 % of control.

In the case of `CCCCCCCCCCCCCC(=O)OC12CC(C)C3(O)C(C=C(CO)C(O)C4(O)C(=O)C(C)=CC43)C1C2(C)C` (stereo not drawn), the T/C was 103 % of control (dose: 62.5 micrograms/kg/injection, schedule: Q01DX009 (ip), vehicle: acetone); 98 % of control (dose: 125.0 micrograms/kg/injection, schedule: Q01DX009 (ip), vehicle: acetone); 88 % of control (dose: 250.0 micrograms/kg/injection, schedule: Q01DX009 (ip), vehicle: acetone); 94 % of control (dose: 500.0 micrograms/kg/injection, schedule: Q01DX009 (ip), vehicle: acetone).

As for `NC(C/[N+]([O-])=N/O)C(=O)O` (stereo not drawn), the T/C is, setting by setting: (dose: 7.02 mg/kg/injection, schedule: Q01DX009 (ip), vehicle: saline with Tween-80) 90 % of control; (dose: 7.02 mg/kg/injection, schedule: Q01DX009 (ip), vehicle: saline) 110 % of control; (dose: 14.06 mg/kg/injection, schedule: Q01DX009 (ip), vehicle: saline with Tween-80) 98 % of control; (dose: 14.06 mg/kg/injection, schedule: Q01DX009 (ip), vehicle: saline) 99 % of control; (dose: 28.12 mg/kg/injection, schedule: Q01DX009 (ip), vehicle: saline with Tween-80) 95 % of control; (dose: 28.12 mg/kg/injection, schedule: Q01DX009 (ip), vehicle: saline) 108 % of control. Besides, the T/C was 106 % of control (dose: 56.25 mg/kg/injection, schedule: Q01DX009 (ip), vehicle: saline with Tween-80); 108 % of control and 112 % of control (dose: 56.25 mg/kg/injection, schedule: Q01DX009 (ip), vehicle: saline); 96 % of control (dose: 112.5 mg/kg/injection, schedule: Q01DX009 (ip), vehicle: saline with Tween-80).

Take `CN(Cc1cnc2nc(N)nc(N)c2n1)c1c(Cl)cc(C(=O)NC(CCC(=O)O)C(=O)O)cc1Cl` (stereo not drawn): the T/C is, setting by setting: (dose: 16.0 mg/kg/injection, schedule: Q01DX005 (ip), vehicle: saline) 115 % of control; under setting [1], 121 % of control; under setting [2], 86 % of control.
